Laboratory results from the NIST ThermoML archive (doi:10.1021/acs.jced.8b00403).

Assay: wn = mass fraction of the nth substance listed
Details: 101.33 kPa, Liquid; for viscosity: Concentric cylinders viscometry; for mass density: Vibrating tube method

CC(O)CO (stereo unspecified) [1,2-propanediol] + O
Details	mass density [kg/m3]	viscosity [mPa·s]
303.15 K, w1 = 0.0988	1002.6	1.148
303.15 K, w1 = 0.198	1010.6	1.599
303.15 K, w1 = 0.3312	1021	2.503
303.15 K, w1 = 0.5005	1031.4	4.51
303.15 K, w1 = 0.672	1035.9	8.01
303.15 K, w1 = 0.8044	1035.4	13.28
303.15 K, w1 = 0.9481	1030.8	26.09
303.15 K, w1 = 1	1028.1	33.26
313.15 K, w1 = 0.0988	999	0.9194
313.15 K, w1 = 0.198	1006	1.241
313.15 K, w1 = 0.3312	1015.3	1.858
313.15 K, w1 = 0.5005	1024.5	3.166
313.15 K, w1 = 0.672	1028.4	5.398
313.15 K, w1 = 0.8044	1027.8	8.638
313.15 K, w1 = 0.9481	1023.2	16
313.15 K, w1 = 1	1020.6	19.92
323.15 K, w1 = 0.0988	994.4	0.7541
323.15 K, w1 = 0.198	1000.8	0.9933
323.15 K, w1 = 0.3312	1009.2	1.436
323.15 K, w1 = 0.5005	1017.4	2.345
323.15 K, w1 = 0.672	1020.8	3.852
323.15 K, w1 = 0.8044	1020.1	5.938
323.15 K, w1 = 0.9481	1015.6	10.4
323.15 K, w1 = 1	1013	12.68
333.15 K, w1 = 0.0988	989.3	0.6304
333.15 K, w1 = 0.198	995.4	0.8167
333.15 K, w1 = 0.3312	1002.7	1.145
333.15 K, w1 = 0.5005	1010	1.802
333.15 K, w1 = 0.672	1013	2.852
333.15 K, w1 = 0.8044	1012.2	4.247
333.15 K, w1 = 0.9481	1007.8	7.094
333.15 K, w1 = 1	1005.3	8.498
343.15 K, w1 = 0.0988	983.5	0.5375
343.15 K, w1 = 0.198	989.2	0.6869
343.15 K, w1 = 0.3312	996	0.9408
343.15 K, w1 = 0.5005	1002.3	1.425
343.15 K, w1 = 0.672	1004.9	2.188
343.15 K, w1 = 0.8044	1004.1	3.161
343.15 K, w1 = 0.9481	999.8	5.053
343.15 K, w1 = 1	997.7	5.95
353.15 K, w1 = 0.0988	977.2	0.4666
353.15 K, w1 = 0.198	982.5	0.5856
353.15 K, w1 = 0.3312	988.9	0.7888
353.15 K, w1 = 0.5005	994.6	1.162
353.15 K, w1 = 0.672	996.9	1.733
353.15 K, w1 = 0.8044	996	2.433
353.15 K, w1 = 0.9481	991.9	3.734
353.15 K, w1 = 1	989.5	4.332
